In ChEMBL document CHEMBL5380793, “Structure-Activity Relationship of Novel Pyrimidine Derivatives with Potent Inhibitory Activities against Mycobacterium tuberculosis” (J Med Chem, 2023):
≈ marks a conversion by molar mass, not a printed value.

Experiments:
Staphylococcus aureus = test: Antibacterial activity against methicillin-resistant Staphylococcus aureus assessed as inhibition of bacterial growth; format: functional
[1] = tested on: Mycobacteroides abscessus; test: Antibacterial activity against Mycobacterium abscessus assessed as inhibition of bacterial growth; format: functional
[2] = tested on: Mycolicibacterium smegmatis; test: Antibacterial activity against Mycobacterium smegmatis assessed as inhibition of bacterial growth; format: functional
Escherichia coli = test: Antibacterial activity against Escherichia coli assessed as inhibition of bacterial growth; format: functional
[3] = Oral bioavailability in Sprague-Dawley rat at 15 mg/kg measured for 24 hrs by LC-MS analysis; format: ADME, organism-based; conditions: in vivo
[4] = biological target: T1, Dihydrofolate reductase (Mycobacterium tuberculosis) (UniProt P9WNX1); test: Inhibition of Mycobacterium tuberculosis DHFR at 10 uM relative to control
T1 sequence (whole entry): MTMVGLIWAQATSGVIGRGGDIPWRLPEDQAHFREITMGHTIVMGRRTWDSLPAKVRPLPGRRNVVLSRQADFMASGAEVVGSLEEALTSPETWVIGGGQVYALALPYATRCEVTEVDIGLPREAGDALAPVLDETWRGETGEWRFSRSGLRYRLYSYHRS

[5] = biological target: T1, Dihydrofolate reductase (Mycobacterium tuberculosis); test: Inhibition of Mycobacterium tuberculosis DHFR at 100 uM relative to control
[6] = tested on: Mycobacterium tuberculosis; test: Antibacterial activity against Mycobacterium tuberculosis H37Rv assessed as inhibition of bacterial growth incubated for 6 days by microplate alamar blue assay; format: functional; conditions: 144 h, time 6 day
[7] = tested on: Mycobacterium tuberculosis; test: Antibacterial activity against Mycobacterium tuberculosis clinical isolate K4 assessed as inhibition of bacterial growth incubated for 6 days by microplate alamar blue assay; format: functional; conditions: K4, 144 h, time 6 day
[8] = tested on: Mycobacterium tuberculosis; test: Antibacterial activity against Mycobacterium tuberculosis clinical isolate K5 assessed as inhibition of bacterial growth incubated for 6 days by microplate alamar blue assay; format: functional; conditions: K5, 144 h, time 6 day
[9] = tested on: Mycobacterium tuberculosis; test: Antibacterial activity against Mycobacterium tuberculosis clinical isolate K12 assessed as inhibition of bacterial growth incubated for 6 days by microplate alamar blue assay; format: functional; conditions: K12, 144 h, time 6 day
[10] = tested on: Mycobacterium tuberculosis; test: Antibacterial activity against Mycobacterium tuberculosis clinical isolate K16 assessed as inhibition of bacterial growth incubated for 6 days by microplate alamar blue assay; format: functional; conditions: K16, 144 h, time 6 day
[11] = tested on: Mycobacterium tuberculosis; test: Antitubercular activity against marker free autoluminescent Mycobacterium tuberculosis H37Ra assessed as reduction in relative light unit measured once a day for 6 days; format: functional; conditions: 144 h, time 6 day
[12] = Cytotoxicity against human HepG2 cells assessed as inhibition of cell growth incubated for 48 hrs by MTT assay; format: toxicity, cell-based
[13] = Toxicity in BALB/c mouse assessed as mouse death at 300 mg/kg, po measured after 6 days; format: organism-based; conditions: in vivo, 144 h, time 6 day
[14] = Toxicity in BALB/c mouse assessed as mouse death at 800 mg/kg, po measured for 2 weeks; format: organism-based; conditions: in vivo, 336 h
[15] = Toxicity in BALB/c mouse assessed as body weight loss at 800 mg/kg, po measured for 2 weeks; format: organism-based; conditions: in vivo, 336 h
[16] = Toxicity in BALB/c mouse assessed as increase in AST level at 800 mg/kg, po measured at 14 days; format: organism-based; conditions: in vivo, 336 h, time 14 day
[17] = Toxicity in BALB/c mouse assessed as increase in uric acid level at 800 mg/kg, po measured at 14 days; format: organism-based; conditions: in vivo, 336 h, time 14 day
[18] = Toxicity in BALB/c mouse assessed as reduction in ALP level at 800 mg/kg, po measured at 14 days; format: organism-based; conditions: in vivo, 336 h, time 14 day
[19] = Toxicity in BALB/c mouse assessed as reduction in LDH level at 800 mg/kg, po measured at 14 days; format: organism-based; conditions: in vivo, 336 h, time 14 day
[20] = Toxicity in BALB/c mouse assessed as histopathological changes in kidney at 800 mg/kg, po measured at 14 days by H and E staining based analysis; format: organism-based; conditions: in vivo, 336 h, time 14 day
[21] = Cmax in Sprague-Dawley rat at 5 mg/kg, iv measured for 24 hrs by LC-MS analysis; format: ADME, organism-based; design: time 24 hrs, dose 5 mg/kg, route iv; conditions: in vivo
[22] = Cmax in Sprague-Dawley rat at 15 mg/kg, po measured for 24 hrs by LC-MS analysis; format: ADME, organism-based; design: dose 15 mg/kg, time 24 hrs, route po; conditions: in vivo
[23] = Tmax in Sprague-Dawley rat at 15 mg/kg, po measured for 24 hrs by LC-MS analysis; format: ADME, organism-based; conditions: in vivo
[24] = Half life in Sprague-Dawley rat at 5 mg/kg, iv measured for 24 hrs by LC-MS analysis; format: ADME, organism-based; conditions: in vivo
[25] = Apparent clearance during terminal phase in Sprague-Dawley rat at 5 mg/kg, iv measured for 24 hrs by LC-MS analysis; format: ADME, organism-based; conditions: in vivo
[26] = AUC(0 to t) in Sprague-Dawley rat at 5 mg/kg, iv measured for 24 hrs by LC-MS analysis; format: ADME, organism-based; design: dose 5 mg/kg, time 24 hrs, route iv; conditions: in vivo
[27] = AUC(0 to t) in Sprague-Dawley rat at 15 mg/kg, po measured for 24 hrs by LC-MS analysis; format: ADME, organism-based; design: dose 15 mg/kg, time 24 hrs, route po; conditions: in vivo
[28] = tested on: Mycobacterium tuberculosis; test: Antitubercular activity against autoluminescent Mycobacterium tuberculosis H37Ra infected in BALB/c mouse assessed as reduction in relative light unit at 300 mg/kg, po administered once daily by oral gavage for 5 days and measured every 2 days by luminometer based analysis; format: functional; conditions: time 5 day
[29] = biological target: T2, Serine/threonine-protein kinase PknB (Mycobacterium tuberculosis) (UniProt P9WI81); test: Binding affinity to Mycobacterium tuberculosis PknB assessed as thermal stability by measuring melting temperature at 100 uM incubated for 0.5 hrs by SYPRO orange dye based differential scanning fluorimetry analysis (reference value: 59 degreeC)
T2 sequence (whole entry): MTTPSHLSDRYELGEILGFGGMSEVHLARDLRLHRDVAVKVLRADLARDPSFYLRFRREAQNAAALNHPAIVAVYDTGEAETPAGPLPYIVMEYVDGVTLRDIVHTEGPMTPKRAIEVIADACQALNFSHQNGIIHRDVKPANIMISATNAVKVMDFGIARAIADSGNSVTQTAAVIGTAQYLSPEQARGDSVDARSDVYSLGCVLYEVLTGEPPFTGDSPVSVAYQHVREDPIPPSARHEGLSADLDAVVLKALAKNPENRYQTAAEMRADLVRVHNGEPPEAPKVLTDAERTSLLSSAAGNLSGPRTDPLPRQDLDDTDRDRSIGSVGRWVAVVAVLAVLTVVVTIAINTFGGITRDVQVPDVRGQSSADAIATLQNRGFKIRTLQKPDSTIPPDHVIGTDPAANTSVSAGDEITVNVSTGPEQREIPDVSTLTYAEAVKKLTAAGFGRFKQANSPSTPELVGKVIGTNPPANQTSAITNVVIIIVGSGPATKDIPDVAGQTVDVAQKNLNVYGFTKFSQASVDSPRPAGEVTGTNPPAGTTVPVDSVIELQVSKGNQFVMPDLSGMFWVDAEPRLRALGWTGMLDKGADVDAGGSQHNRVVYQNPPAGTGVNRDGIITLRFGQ

[30] = biological target: T2, Serine/threonine-protein kinase PknB (Mycobacterium tuberculosis); test: Binding affinity to Mycobacterium tuberculosis PknB assessed as thermal stability by measuring change in melting temperature at 100 uM incubated for 0.5 hrs by SYPRO orange dye based differential scanning fluorimetry analysis
[31] = biological target: T2, Serine/threonine-protein kinase PknB (Mycobacterium tuberculosis); test: Binding affinity to Mycobacterium tuberculosis PknB assessed as gibbs free energy at 600 uM by ITC analysis
[32] = biological target: T3, Serine/threonine-protein kinase PknB (Mycobacterium tuberculosis, UniProt P9WI81); test: Binding affinity to Mycobacterium tuberculosis PknB assessed as dissociation constant at 600 uM by ITC analysis
T3 sequence (P9WI81 whole entry): T2 sequence (whole entry)

Cc1cc(Nc2ncc(Cl)c(Nc3cccc4ccccc34)n2)c(OC(C)C)cc1C1CCNCC1
MIC (Staphylococcus aureus): 8 µg/mL (≈ 15.9 µM)
MIC [1]: 16 µg/mL (≈ 31.9 µM)
MIC [2]: 16 µg/mL (≈ 31.9 µM)
MIC (Escherichia coli): > 16 µg/mL
bioavailability [3]: 17.5%
inhibition [4]: 3.1%
inhibition [5]: 4.4%

NNC(=O)c1ccncc1 [ISONIAZID]
MIC [6]: < 1 µg/mL
MIC [7]: > 50 µg/mL
MIC [8]: > 50 µg/mL
MIC [9]: > 10 µg/mL
MIC [10]: > 10 µg/mL

Cc1cc(Nc2nc(Nc3ccc(F)cc3)ncc2Cl)c(OC(C)C)cc1C1CCNCC1
MIC [11]: 0.5 µg/mL (≈ 1.06 µM)
IC50 at 48 h [12]: 2.2 µM
MIC (Staphylococcus aureus): 4 µg/mL (≈ 8.51 µM)
MIC [1]: 8 µg/mL (≈ 17 µM)
MIC [2]: 4 µg/mL (≈ 8.51 µM)
MIC (Escherichia coli): > 16 µg/mL
MIC [6]: 1 µg/mL (≈ 2.13 µM)
MIC [7]: 1 µg/mL (≈ 2.13 µM)
MIC [8]: 2 µg/mL (≈ 4.26 µM)
MIC [9]: 1 µg/mL (≈ 2.13 µM)
MIC [10]: 2 µg/mL (≈ 4.26 µM)
Activity [13]: Toxic
inhibition [4]: 2.8%
inhibition [5]: 3.5%

CO[C@H]1/C=C/O[C@@]2(C)Oc3c(C)c(O)c4c(O)c(c(/C=N/N5CCN(C)CC5)c(O)c4c3C2=O)NC(=O)/C(C)=C\C=C\[C@H](C)[C@H](O)[C@@H](C)[C@@H](O)[C@@H](C)[C@H](OC(C)=O)[C@@H]1C [RIFAMPIN]
MIC [6]: < 1 µg/mL
MIC [7]: > 50 µg/mL
MIC [8]: > 50 µg/mL
MIC [9]: > 10 µg/mL
MIC [10]: > 10 µg/mL

Cc1cc(Nc2nc(-c3ccccc3)ncc2Cl)c(OC(C)C)cc1C1CCNCC1
MIC [11]: 0.5 µg/mL (≈ 1.14 µM)
IC50 at 48 h [12]: 3.1 µM
MIC (Staphylococcus aureus): 4 µg/mL (≈ 9.15 µM)
MIC [1]: 4 µg/mL (≈ 9.15 µM)
MIC [2]: 4 µg/mL (≈ 9.15 µM)
MIC (Escherichia coli): > 16 µg/mL
MIC [6]: 0.5 µg/mL (≈ 1.14 µM)
MIC [7]: 0.5 µg/mL (≈ 1.14 µM)
MIC [8]: 1 µg/mL (≈ 2.29 µM)
MIC [9]: 0.5 µg/mL (≈ 1.14 µM)
MIC [10]: 1 µg/mL (≈ 2.29 µM)
Activity [14]: Non-Toxic
Activity [15]: Non-Toxic
Activity [16]: Toxic
Activity [17]: Toxic
Activity [18]: Toxic
Activity [19]: Toxic
Activity [20]: Toxic
Cmax [21]: 595 ng/mL
Cmax [22]: 108 ng/mL
Tmax [23]: > 24 h
half-life [24]: 26.2 h
CLz/F [25]: 25 mL/min/kg
AUC(0-t) at 24 h [26]: 1690 ng·h/mL
AUC(0-t) at 24 h [27]: 2080 ng·h/mL
bioavailability [3]: 40.7%
Activity [28]: 0.5 log10RLU
inhibition [4]: 4.5%
inhibition [5]: 7.1%
Tm [29]: 54 °C
ΔTm [30]: -5 °C
deltaG [31]: -3.1 kcal/mol
Kd [32]: 9.4 µM
